According to paper PMC2825747 (Journal of medicinal chemistry, 2010):

Assays:
[1] = test system: MDA-MB-435, A431, Capan-1, HUVEC, HMEC-1, Huperi-3, human aortic SMCs; test: Cell viability; conditions: 24 h drug then 24 h serum-containing media; Fig. 10
[2] = test system: COLO-205 metastatic colon cancer cells; test: COLO-205 human metastatic colon mouse xenograft; format: in vivo, athymic mice; conditions: 1 at both 25 and 35 mg/kg; DMBI 15 mg/kg three times weekly
NCI 60 tumor cell lines = test: NCI preclinical 60 tumor cell line panel growth inhibition; format: cell-based; conditions: Homo sapiens, read-out: GI50 against the growth of the NCI 60 tumor cell lines
[3] = test system: MDA MB 435 metastatic dermal breast cancer cells; test: Cell cycle analysis in MDA-MB-435 cells; format: cell-based, human; conditions: 20 μM, 24 h exposure
MDA-MB-435 breast cells = test: Cell signaling analysis; format: cell-based, human; conditions: MDA-MB-435 cells, 20 μM, 1 or 4 h
[4] = Dose-finding embryo lethality in CAM model; format: in vivo; conditions: chicken embryos, 3 days after injection
[5] = Whole animal toxicity assay; conditions: doses up from 75 mg/kg; no MTD was determined
Flt-3 = biological target: T1, Flt-3 (Homo sapiens, UniProt P36888); test: Flt-3 kinase whole cell assay, cytoblot in MV 3:11 cells; format: cell-based; conditions: versus 16
T1 sequence (P36888 27-993): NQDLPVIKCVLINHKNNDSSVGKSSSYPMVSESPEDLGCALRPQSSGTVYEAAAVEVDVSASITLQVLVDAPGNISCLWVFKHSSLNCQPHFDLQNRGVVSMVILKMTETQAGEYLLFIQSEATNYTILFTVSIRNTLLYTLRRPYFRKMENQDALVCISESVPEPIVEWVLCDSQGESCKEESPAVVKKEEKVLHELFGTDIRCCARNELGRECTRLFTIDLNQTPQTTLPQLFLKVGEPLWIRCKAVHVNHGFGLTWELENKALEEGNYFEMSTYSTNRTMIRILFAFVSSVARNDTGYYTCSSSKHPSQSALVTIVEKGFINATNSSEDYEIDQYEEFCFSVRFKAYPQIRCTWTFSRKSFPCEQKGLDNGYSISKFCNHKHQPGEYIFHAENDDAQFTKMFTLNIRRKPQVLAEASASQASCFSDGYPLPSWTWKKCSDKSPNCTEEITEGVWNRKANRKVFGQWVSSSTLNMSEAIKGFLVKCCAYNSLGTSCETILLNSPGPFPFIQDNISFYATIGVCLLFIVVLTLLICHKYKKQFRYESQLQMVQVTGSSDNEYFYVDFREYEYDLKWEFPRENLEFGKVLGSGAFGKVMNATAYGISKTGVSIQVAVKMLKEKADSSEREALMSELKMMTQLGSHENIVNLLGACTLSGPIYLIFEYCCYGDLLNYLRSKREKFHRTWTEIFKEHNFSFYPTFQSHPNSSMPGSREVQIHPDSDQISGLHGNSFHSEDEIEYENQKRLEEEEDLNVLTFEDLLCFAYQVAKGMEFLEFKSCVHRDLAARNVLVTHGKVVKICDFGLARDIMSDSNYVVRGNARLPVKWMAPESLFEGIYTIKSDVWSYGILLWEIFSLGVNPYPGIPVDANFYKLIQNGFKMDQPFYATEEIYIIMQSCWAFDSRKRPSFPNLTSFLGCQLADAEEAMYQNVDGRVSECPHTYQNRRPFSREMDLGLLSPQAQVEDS

[6] = biological target: human thymidylate synthase (hTS) (Homo sapiens, UniProt P04818); test: Thymidylate synthase; format: biochemical; conditions: versus pemetrexed
[7] = biological target: E. coli thymidylate synthase (Escherichia coli, UniProt P0A884); test: Thymidylate synthase; format: biochemical
[8] = biological target: T2, Toxoplasma gondii dihydrofolate reductase (Toxoplasma gondii, UniProt Q07422); test: biochemical
T2 sequence (Q07422 1-610): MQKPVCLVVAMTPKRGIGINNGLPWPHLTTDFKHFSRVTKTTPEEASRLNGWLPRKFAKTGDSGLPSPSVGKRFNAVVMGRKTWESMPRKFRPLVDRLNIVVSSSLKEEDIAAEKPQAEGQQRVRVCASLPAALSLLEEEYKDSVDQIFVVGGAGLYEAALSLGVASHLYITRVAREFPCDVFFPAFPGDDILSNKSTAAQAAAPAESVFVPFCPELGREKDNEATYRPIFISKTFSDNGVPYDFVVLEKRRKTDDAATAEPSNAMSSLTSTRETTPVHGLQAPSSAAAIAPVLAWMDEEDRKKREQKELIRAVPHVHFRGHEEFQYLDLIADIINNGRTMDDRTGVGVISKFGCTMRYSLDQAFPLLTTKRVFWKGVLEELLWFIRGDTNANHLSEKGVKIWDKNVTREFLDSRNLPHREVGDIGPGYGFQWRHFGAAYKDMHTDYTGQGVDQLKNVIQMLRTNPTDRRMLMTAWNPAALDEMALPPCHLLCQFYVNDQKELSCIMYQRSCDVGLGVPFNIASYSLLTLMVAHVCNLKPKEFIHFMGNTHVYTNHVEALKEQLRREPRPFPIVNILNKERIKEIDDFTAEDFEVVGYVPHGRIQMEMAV

PDGFR-β = PDGFR-β (Homo sapiens, UniProt P09619); test: PDGFR-β kinase inhibition, phosphotyrosine cytoblot in SF539 cells; format: cell-based; conditions: versus DMBI
[9] = biological target: T3, Toxoplasma gondii thymidylate synthase (Toxoplasma gondii, UniProt Q07422); test: biochemical
T3 sequence (Q07422 1-610): T2 sequence (Q07422 1-610)

Chain of E. coli thymidylate synthase (P0A884 whole entry): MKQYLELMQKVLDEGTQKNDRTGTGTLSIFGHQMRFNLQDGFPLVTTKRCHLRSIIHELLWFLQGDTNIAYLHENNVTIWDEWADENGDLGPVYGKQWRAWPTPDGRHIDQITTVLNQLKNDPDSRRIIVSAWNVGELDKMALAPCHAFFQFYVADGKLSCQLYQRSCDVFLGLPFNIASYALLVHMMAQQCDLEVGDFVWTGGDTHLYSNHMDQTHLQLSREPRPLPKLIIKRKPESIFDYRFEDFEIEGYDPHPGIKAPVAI
Chain of human thymidylate synthase (hTS) (P04818 whole entry): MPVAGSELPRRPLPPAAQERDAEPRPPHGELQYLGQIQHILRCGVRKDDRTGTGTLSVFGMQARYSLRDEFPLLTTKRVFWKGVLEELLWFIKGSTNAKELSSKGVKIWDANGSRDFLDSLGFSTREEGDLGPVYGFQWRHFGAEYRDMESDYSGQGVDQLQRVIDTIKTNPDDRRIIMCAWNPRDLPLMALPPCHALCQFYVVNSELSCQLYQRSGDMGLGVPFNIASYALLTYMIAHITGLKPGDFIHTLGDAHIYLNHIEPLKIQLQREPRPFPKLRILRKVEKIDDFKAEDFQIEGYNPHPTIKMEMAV
Chain of PDGFR-β (P09619 33-1106): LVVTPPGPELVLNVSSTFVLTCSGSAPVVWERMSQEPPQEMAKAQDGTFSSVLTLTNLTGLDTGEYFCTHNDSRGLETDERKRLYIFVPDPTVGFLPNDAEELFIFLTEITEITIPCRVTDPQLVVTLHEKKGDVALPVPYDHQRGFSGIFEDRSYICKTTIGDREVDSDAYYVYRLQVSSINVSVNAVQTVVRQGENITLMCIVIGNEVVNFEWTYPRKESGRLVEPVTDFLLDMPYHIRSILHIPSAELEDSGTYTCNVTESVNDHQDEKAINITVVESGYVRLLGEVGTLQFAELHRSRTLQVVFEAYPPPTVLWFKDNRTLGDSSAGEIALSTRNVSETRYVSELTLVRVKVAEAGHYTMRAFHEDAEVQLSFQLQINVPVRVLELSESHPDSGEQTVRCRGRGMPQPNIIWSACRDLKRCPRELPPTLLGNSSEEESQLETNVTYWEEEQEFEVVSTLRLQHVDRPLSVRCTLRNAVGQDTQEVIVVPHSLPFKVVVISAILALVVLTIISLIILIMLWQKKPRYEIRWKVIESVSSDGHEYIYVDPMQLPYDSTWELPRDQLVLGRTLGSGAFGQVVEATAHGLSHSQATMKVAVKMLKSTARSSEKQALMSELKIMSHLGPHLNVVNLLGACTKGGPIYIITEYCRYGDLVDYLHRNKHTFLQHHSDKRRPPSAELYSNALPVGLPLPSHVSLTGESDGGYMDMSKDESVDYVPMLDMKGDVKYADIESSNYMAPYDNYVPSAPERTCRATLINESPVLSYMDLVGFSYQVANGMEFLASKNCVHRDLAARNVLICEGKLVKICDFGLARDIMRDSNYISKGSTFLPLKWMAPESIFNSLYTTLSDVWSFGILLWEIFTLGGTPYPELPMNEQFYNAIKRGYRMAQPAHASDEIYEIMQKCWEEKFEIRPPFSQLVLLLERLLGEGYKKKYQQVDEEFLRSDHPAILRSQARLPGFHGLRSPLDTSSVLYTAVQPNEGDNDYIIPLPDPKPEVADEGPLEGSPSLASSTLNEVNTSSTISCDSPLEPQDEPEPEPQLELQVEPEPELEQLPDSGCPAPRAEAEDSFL

In the case of `Nc1nc(N)c2c(n1)[nH]c1cccc(Sc3ccccc3)c12` [Compound 1, 5-(phenylthio)-9H-pyrimido[4,5-b]indole-2,4-diamine], the “cell viability (cell kill) sensitivity by cell type” value [1] is reported as “Human retinal pericytes (Huperi-3),[64] (not human aortic SMCs), were very sensitive”, the “numbers of COLO-205 metastases to the liver” value [2] is reported as “significantly reduced numbers of COLO-205 metastases to the liver” and the GI50 (NCI 60 tumor cell lines) is reported as 1 to 10 µM. For the same compound, the cell cycle effect [3] was “buildup in G2/M”, the “levels of activated phospho-Akt” value (MDA-MB-435 breast cells) was “neither agent resulted in increased levels of activated phospho-Akt” and the “levels of activated phospho-p42/44 MAPkinase (ERK 1/2)” value (MDA-MB-435 breast cells) was “reduced levels of activated ERK 1/2”. The “levels of cleaved caspase 3” value (MDA-MB-435 breast cells) was “neither 20 μM 1 or 20 μM 2 resulted in increased levels of cleaved caspase 3”, the “highest dose resulting in no lethality or overt toxicity in embryos” value [4] was 25 mg/kg and the tolerability in mice [5] was “well tolerated without any visual ADRs or loss in weight”.
In the case of `Cc1ccc(Sc2cccc3[nH]c4nc(N)nc(N)c4c23)cc1` [Compound 2, 5-[(4-methylphenyl)thio]-9H-pyrimido[4,5-b]indole-2,4-diamine], the “Flt-3: fold less active compared with standard 16” value (Flt-3) is reported as “about 13 fold”, the “cell viability (cell kill) sensitivity by cell type” value [1] is reported as “tumor cells being the most sensitive, endothelial cells falling someplace in the middle, and SMC variants being the least sensitive” and the “hTS: fold more active than PMX as its monoglutamate” value [6] is reported as 76 fold. For the same compound, the IC50 [7] was > 26 µM, the IC50 [8] was > 31 µM and the “PDGFR-β: fold less potent than the standard DMBI” value (PDGFR-β) was “about 11 fold”. The cell cycle effect [3] was “increase in S phase”, the “levels of activated phospho-Akt” value (MDA-MB-435 breast cells) was “neither agent resulted in increased levels of activated phospho-Akt” and the “levels of activated phospho-p42/44 MAPkinase (ERK 1/2)” value (MDA-MB-435 breast cells) was “reduced levels of activated ERK 1/2”. The “levels of cleaved caspase 3” value (MDA-MB-435 breast cells) was “neither 20 μM 1 or 20 μM 2 resulted in increased levels of cleaved caspase 3” and the IC50 [9] was > 26 µM.
For `Nc1ccn([C@@H]2O[C@H](CO)[C@@H](O)C2(F)F)c(=O)n1` [gemcitabine, reference compound], the “highest dose resulting in no lethality or overt toxicity in embryos” value [4] was 10 mg/kg.
